Measured values as given in patent US10392368B2, “Pyrazolo and triazolo bicyclic compounds as JAK kinase inhibitors” (THERAVANCE BIOPHARMA R&D IP, LLC, priority 2017, dated 2019).
Where two headings read alike, the source gives them in different places.

Key:
Tyk2 = molecular target: T1, Tyk2 (Homo sapiens, UniProt P29597); assay: Biochemical Tyk2 kinase assay (LanthaScreen); details: for Ki: read-out: Tyk 2 (pKi) (converted)
T1 construct: GST; purchased Life Technologies
Summary of the method: (§1)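 Values are pKi, calculated by Cheng-Prusoff from IC50 obtained by robust 4-parameter fitting of percent inhibition. The kinase reaction used GFP-STAT1 peptide in HEPES pH 7.5 buffer with MgCl2, EGTA and Brij-35, ATP-initiated after compound pre-incubation, 1 h at ambient temperature.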

JAK2 = molecular target: T2, JAK2 (Homo sapiens, UniProt O60674); assay: Biochemical JAK2 kinase assay (LanthaScreen); details: for Ki: read-out: JAK 2 (pKi) (converted)
T2 construct: GST; purchased Life Technologies
Summary of the method: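 pKi values derive from pIC50 via Cheng-Prusoff, with IC50 from a 4-parameter fit of percent-inhibition TR-FRET data using Tb-anti-pSTAT1 (pTyr701) detection. Compound, GST-JAK2 and GFP-STAT1 substrate were pre-incubated 1 h, then ATP started a 1 h ambient reaction (HEPES pH 7.5, 10 mM MgCl2, 1% DMSO).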

JAK3 = molecular target: T3, JAK3 (Homo sapiens, UniProt P52333); assay: Biochemical JAK3 kinase assay (LanthaScreen); design: GST; purchased Life Technologies; details: for Ki: read-out: JAK 3 (pKi) (converted)
T3 sequence (P52333 1-1124): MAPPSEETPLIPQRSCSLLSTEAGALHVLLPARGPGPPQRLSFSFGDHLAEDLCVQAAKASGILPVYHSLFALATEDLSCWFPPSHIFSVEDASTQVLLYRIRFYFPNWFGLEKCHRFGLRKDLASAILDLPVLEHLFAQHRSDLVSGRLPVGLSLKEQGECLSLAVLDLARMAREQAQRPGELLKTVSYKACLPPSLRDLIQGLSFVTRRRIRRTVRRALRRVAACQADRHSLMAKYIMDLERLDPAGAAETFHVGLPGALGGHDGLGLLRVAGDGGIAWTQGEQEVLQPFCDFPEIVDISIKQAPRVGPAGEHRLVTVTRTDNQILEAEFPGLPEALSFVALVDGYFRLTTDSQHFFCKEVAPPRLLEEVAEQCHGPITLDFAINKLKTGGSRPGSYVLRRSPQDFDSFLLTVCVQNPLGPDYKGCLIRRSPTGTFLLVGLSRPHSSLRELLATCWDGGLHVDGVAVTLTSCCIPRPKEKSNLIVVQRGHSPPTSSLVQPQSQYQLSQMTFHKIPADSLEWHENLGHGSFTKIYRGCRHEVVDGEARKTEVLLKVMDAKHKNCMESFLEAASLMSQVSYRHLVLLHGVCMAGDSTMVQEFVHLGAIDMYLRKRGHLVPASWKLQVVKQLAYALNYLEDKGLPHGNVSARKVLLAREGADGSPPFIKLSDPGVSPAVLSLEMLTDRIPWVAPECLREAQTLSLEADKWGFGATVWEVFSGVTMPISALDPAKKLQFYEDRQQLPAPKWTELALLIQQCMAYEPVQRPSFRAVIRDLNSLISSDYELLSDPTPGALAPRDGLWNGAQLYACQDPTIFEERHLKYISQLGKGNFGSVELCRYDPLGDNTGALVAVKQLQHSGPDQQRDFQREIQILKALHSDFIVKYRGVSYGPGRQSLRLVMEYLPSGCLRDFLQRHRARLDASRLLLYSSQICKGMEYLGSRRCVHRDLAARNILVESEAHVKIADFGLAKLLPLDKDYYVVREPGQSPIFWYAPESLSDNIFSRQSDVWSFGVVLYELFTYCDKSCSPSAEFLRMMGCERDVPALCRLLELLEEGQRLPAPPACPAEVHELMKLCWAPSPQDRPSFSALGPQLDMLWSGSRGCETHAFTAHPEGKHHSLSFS
Summary of the method: as §1

[1] = system: IL-2 stimulated pSTAT5 in Tall-1 T cells; assay: Cellular JAK3 potency assay: inhibition of IL-2 stimulated pSTAT5 in Tall-1 T cells; type: cell-based, human; details: for IC50: Homo sapiens, read-out: Tall-1 (pIC50) (converted)
Summary of the method: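 Inhibition of IL-2-induced pSTAT5 was quantified by AlphaLisa in Tall-1 cell lysates. Compound exposure lasted 1 h before 30 min stimulation with 300 ng/ml IL-2 final.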

JAK1 = molecular target: T4, JAK1 (Homo sapiens, UniProt P23458); assay: Biochemical JAK1 kinase assay (LanthaScreen); details: for Ki: read-out: JAK 1 (pKi) (converted)
T4 construct: GST; purchased Life Technologies
Summary of the method: as §1

[2] = selectivity: difference of pKi JAK3 and pKi JAK1
[3] = TALL-1, IL-2 stimulated pSTAT5 in Tall-1 T cells
[4] = selectivity JAK3 over JAK1, difference of pKi
[5] = IL-2 stimulated pSTAT5, Tall-1 T cells
[6] = TALL-1, IL-2 stimulated pSTAT5, Tall-1 T cells
[7] = IL-2 stimulated pSTAT5 in Tall-1 T cells

T1 sequence (P29597 whole entry): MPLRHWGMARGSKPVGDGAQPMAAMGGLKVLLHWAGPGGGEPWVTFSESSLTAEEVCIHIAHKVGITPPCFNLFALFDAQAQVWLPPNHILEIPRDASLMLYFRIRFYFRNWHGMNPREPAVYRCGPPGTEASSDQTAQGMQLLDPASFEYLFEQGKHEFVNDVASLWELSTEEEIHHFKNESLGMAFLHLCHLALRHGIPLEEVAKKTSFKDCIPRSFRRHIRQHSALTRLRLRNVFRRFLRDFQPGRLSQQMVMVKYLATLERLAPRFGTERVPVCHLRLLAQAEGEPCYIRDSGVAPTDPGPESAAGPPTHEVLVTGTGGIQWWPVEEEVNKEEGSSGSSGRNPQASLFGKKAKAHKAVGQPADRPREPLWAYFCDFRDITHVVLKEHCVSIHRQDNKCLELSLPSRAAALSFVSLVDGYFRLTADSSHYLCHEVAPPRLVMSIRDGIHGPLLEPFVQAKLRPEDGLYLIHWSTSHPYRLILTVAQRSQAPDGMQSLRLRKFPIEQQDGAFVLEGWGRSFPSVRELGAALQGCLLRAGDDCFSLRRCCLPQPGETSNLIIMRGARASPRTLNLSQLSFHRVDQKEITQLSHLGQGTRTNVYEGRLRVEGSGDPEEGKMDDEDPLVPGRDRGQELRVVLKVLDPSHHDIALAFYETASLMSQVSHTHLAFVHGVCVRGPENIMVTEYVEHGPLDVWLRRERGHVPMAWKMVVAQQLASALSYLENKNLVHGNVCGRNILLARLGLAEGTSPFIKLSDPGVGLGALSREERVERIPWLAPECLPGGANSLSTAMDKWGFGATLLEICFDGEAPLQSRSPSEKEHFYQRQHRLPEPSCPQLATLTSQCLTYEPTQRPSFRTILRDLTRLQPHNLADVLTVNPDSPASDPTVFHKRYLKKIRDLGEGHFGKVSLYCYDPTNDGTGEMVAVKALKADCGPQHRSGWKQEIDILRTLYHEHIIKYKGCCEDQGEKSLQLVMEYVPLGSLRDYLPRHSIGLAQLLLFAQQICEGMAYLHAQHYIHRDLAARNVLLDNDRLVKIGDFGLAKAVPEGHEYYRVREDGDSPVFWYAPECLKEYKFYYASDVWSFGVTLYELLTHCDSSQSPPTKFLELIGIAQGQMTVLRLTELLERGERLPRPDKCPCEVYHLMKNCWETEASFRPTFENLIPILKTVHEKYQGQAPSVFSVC
T4 sequence (P23458 whole entry): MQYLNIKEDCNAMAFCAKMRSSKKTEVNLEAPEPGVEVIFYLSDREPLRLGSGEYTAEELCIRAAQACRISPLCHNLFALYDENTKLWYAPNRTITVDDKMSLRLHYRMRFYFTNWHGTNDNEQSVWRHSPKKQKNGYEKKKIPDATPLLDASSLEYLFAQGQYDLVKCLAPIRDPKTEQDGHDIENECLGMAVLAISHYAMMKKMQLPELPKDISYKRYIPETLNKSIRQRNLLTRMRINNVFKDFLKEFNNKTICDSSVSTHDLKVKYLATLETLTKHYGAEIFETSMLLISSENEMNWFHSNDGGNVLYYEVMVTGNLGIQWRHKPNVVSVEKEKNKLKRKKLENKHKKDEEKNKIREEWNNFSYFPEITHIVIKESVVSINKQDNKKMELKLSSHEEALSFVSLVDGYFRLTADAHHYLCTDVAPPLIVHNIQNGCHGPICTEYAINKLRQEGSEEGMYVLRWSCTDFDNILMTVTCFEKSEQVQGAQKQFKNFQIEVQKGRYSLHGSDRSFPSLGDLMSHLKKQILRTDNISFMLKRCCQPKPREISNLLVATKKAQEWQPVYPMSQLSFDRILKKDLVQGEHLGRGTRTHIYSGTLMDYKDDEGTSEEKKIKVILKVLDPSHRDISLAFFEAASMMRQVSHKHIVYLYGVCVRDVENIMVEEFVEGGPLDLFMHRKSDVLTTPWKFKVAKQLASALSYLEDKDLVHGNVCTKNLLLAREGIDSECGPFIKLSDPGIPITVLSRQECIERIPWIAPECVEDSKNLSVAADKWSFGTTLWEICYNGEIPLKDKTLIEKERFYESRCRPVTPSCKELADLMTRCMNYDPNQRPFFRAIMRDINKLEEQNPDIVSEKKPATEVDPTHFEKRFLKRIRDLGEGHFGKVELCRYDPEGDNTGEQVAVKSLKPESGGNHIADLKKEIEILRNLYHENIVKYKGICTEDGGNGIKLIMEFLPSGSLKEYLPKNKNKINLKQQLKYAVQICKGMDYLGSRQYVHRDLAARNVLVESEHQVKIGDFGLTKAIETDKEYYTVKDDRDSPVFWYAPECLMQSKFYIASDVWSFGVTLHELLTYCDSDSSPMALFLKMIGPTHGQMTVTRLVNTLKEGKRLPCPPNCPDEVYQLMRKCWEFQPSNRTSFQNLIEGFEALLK
T2 sequence (O60674 whole entry): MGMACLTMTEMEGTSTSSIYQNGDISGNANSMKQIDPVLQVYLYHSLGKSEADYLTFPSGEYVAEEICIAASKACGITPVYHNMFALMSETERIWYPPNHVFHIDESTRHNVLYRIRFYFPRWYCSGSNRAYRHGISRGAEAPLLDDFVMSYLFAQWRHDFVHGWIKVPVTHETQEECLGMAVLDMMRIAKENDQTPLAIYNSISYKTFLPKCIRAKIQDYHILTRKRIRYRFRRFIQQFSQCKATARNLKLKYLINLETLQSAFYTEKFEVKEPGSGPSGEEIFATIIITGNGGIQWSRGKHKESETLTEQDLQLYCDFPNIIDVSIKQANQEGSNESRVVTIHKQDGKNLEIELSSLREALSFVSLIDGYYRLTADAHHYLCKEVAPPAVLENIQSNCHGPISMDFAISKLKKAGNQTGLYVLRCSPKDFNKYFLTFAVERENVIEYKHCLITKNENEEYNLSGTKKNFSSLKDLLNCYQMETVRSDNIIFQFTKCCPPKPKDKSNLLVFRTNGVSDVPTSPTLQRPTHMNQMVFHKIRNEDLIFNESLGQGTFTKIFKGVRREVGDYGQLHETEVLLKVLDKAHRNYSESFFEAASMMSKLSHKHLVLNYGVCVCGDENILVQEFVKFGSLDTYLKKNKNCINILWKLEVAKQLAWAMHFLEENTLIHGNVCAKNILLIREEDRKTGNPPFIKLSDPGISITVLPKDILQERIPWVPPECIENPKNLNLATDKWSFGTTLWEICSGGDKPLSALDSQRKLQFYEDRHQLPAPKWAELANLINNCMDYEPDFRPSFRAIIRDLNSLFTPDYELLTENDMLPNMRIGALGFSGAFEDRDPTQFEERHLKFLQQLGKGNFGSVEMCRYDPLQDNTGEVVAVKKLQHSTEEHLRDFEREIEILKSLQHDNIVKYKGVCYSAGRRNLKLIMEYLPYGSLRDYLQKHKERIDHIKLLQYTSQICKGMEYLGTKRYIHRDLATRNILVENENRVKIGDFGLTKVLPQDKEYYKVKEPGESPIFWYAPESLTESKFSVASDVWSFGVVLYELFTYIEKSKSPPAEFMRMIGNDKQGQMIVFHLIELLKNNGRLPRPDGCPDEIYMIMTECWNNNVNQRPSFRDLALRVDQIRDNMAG

Compound	Ki (Tyk2)	Ki (JAK2)	Ki (JAK3)	JAK3 (pKi)-JAK1 (pKi) (JAK3; [2])	IC50 [1, 3]	Ki (JAK1)	Tyk 2 (pKi) (Tyk2)	JAK 2 (pKi) (JAK2)	JAK 3 (pKi) (JAK3)	JAK3 (pKi)-JAK1 (pKi) (JAK3; [4])	Tall-1 (pIC50) [1, 5]	JAK 1 (pKi) (JAK1)	IC50 [1, 6]	Tall-1 (pIC50) [1, 7]
C=CC(=O)N1CC[C@H](Oc2cc(-c3ccc(O)c(F)c3)nc3[nH]nc(C)c23)C1 [Compound 1-33]	> 100 nM	> 100 nM	0.1 to 1 nM	A (a value of 3 or above)	31.6 to 200 nM	> 100 nM								
C=CC(=O)N1CC(F)(COc2nc(-c3ccc(O)c(F)c3)cc3[nH]ncc23)C1 [Compound 3-49]	> 100 nM	10 to 100 nM	0.1 to 1 nM	B (a value of 2.3 to 3)	< 31.6 nM	> 100 nM								
C=CC(=O)N1CCC(COc2cc(-c3ccc(O)c(F)c3)nc3[nH]ncc23)CC1 [Compound 14-9]							E (a pKi value of 7 or below (Ki of 100 nM or above))	E (a pKi value of 7 or below (Ki of 100 nM or above))	B (a pKi value between 9 and 10 (Ki between 1 nM and 0.1 nM))	A (a value of 3 or above)	B (a pIC50 value between 6.7 (included) and 7.5 (IC50 between 200 nM and 32 nM))	E (a pKi value of 7 or below (Ki of 100 nM or above))		
C=CC(=O)N1CCC(Oc2cc(-c3ccc(O)cc3)nc3[nH]ncc23)CC1C (stereo not drawn) [Compound 13-13]							E (a pKi value of 7 or below (Ki of 100 nM or above))	E (a pKi value of 7 or below (Ki of 100 nM or above))	B (a pKi value between 9 and 10 (Ki between 1 nM and 0.1 nM))	A (a value of 3 or above)	C (a pIC50 value between 6 and 6.7 (IC50 between 1 μM and 200 nM))	E (a pKi value of 7 or below (Ki of 100 nM or above))		
CN(C)C/C=C/C(=O)N1CC(F)(COc2nc(-c3ccc(O)c(Cl)c3)nc3[nH]ncc23)C1 [Compound 3-50]	> 100 nM	> 100 nM	0.1 to 1 nM	A (a value of 3 or above)	31.6 to 200 nM	> 100 nM								
C=CC(=O)N1CC[C@H](Oc2cc(-c3ccc(O)cc3F)cc3[nH]ncc23)C1 [Compound 1-17]	> 100 nM	10 to 100 nM	0.1 to 1 nM	A (a value of 3 or above)	< 31.6 nM	> 100 nM								
C=CC(=O)N1CC[C@H](Oc2cc(-c3ccc(O)cc3)cc3[nH]nc(C)c23)C1 [Compound 1-20]	> 100 nM	10 to 100 nM	0.1 to 1 nM	B (a value of 2.3 to 3)	< 31.6 nM	> 100 nM								
C=CC(=O)N1CC(S(=O)(=O)c2cc(-c3ccc(O)cc3)cc3[nH]ncc23)C1 [Compound 12-50]	> 100 nM	> 100 nM	< 0.1 nM			> 100 nM				A (a value of 3 or above)			31.6 to 200 nM	
C=CC(=O)N1CC(COc2cc(-c3ccc(O)c(F)c3)cc3[nH]ncc23)(OC)C1 [Compound 3-75]				A (a value of 3 or above)			E (a pKi value of 7 or below (Ki of 100 nM or above))	E (a pKi value of 7 or below (Ki of 100 nM or above))	B (a pKi value between 9 and 10 (Ki between 1 nM and 0.1 nM))			E (a pKi value of 7 or below (Ki of 100 nM or above))		A (a pIC50 value≥7.5 (IC50≤32 nM))
C=CC(=O)N1CC[C@H](Oc2nc(-c3ccc(O)cc3)cc3[nH]ncc23)C1 [Compound 1-8]	> 100 nM	> 100 nM	0.1 to 1 nM	A (a value of 3 or above)	31.6 to 200 nM	> 100 nM								
CN(C)C/C=C/C(=O)N1CC2(CCC2Oc2cc(-c3ccc(O)cc3)cc3[nH]ncc23)C1 (stereo not drawn) [Compound 12-53]	> 100 nM	1 to 10 nM	0.1 to 1 nM			> 100 nM				B (a value of 2.3 to 3)			< 31.6 nM	
C=CC(=O)N1CC(CSc2cc(-c3ccc(O)c(Cl)c3)cc3[nH]ncc23)C1 [Compound 13-8]							E (a pKi value of 7 or below (Ki of 100 nM or above))	E (a pKi value of 7 or below (Ki of 100 nM or above))	B (a pKi value between 9 and 10 (Ki between 1 nM and 0.1 nM))	A (a value of 3 or above)	A (a pIC50 value≥7.5 (IC50≤32 nM))	E (a pKi value of 7 or below (Ki of 100 nM or above))		
C=CC(=O)N1CCC(C)(Oc2cc(-c3ccc(O)cc3Cl)cc3[nH]ncc23)C1 (stereo not drawn) [Compound 13-14]							E (a pKi value of 7 or below (Ki of 100 nM or above))	D (a pKi value between 7 and 8 (Ki between 100 nM and 10 nM))	A (a pKi value≥10 (Ki≤0.1 nM))	A (a value of 3 or above)	A (a pIC50 value≥7.5 (IC50≤32 nM))	E (a pKi value of 7 or below (Ki of 100 nM or above))		
COC1(COc2cc(-c3ccc(O)cc3)cc3[nH]ncc23)CN(C(=O)/C=C/CN(C)C)C1 [Compound 3-32]	> 100 nM	> 100 nM	0.1 to 1 nM	A (a value of 3 or above)	< 31.6 nM	> 100 nM								
CN(C)C/C=C/C(=O)N1CC(Oc2cc(-c3ccc(O)c(F)c3)cc3[nH]ncc23)C1 [Compound 5-5]				A (a value of 3 or above)			E (a pKi value of 7 or below (Ki of 100 nM or above))	D (a pKi value between 7 and 8 (Ki between 100 nM and 10 nM))	A (a pKi value≥10 (Ki≤0.1 nM))			E (a pKi value of 7 or below (Ki of 100 nM or above))		B (a pIC50 value between 6.7 (included) and 7.5 (IC50 between 200 nM and 32 nM))
